Measured values taken from ChEMBL document CHEMBL4732045, “Amide Bond Bioisosteres: Strategies, Synthesis, and Successes” (J Med Chem, 2020).
Converted amounts (≈) assume the structure as drawn. Peptide text beside a SMILES is read from it. * marks the point of attachment. Hica(2S) = CC(C)C[C@H](O)C(=O)O; Boc = CC(C)(C)OC(=O)*

Tests used:
[1] = Plasma clearance in rat; type: ADME
[2] = Oral bioavailability in Sprague-Dawley rat at 2 mg/kg; type: ADME, organism-based; settings: in vivo
Integrin alpha-4/beta-1 = Integrin alpha-4/beta-1 (Homo sapiens, UniProt P05556+P13612); assay: Displacement of 125I-VCAM-Ig from VLA4 in human Jurkat cells incubated for 30 mins by scintillation counting method; type: cell-based
MDA-MB-231 [3] = assay: cells; settings: Homo sapiens, MDA-MB-231, 24 h
MDA-MB-231 [4] = assay: Antitumor activity against human MDA-MB-231 cells xenografted in nude mouse assessed as reduction in tumor volume at 70 mg/kg, ip administered for 15 days (reference value: 550 +/- 98.6 mm3); type: functional; settings: time 15 day
MCF-10A = assay: Antiproliferative activity against human MCF-10A cells incubated for 24 hrs by MTT assay; type: functional, cell-based
[5] = Antagonist activity at bombesin receptor in Sprague-Dawley rat pancreatic acini assessed as inhibition of bombesin-induced amylase release incubated for 30 mins; type: tissue-based, Pancreas
[6] = Half life in Sprague-Dawley rat plasma measured after 60 mins by HPLC method; type: ADME, cell-free
[7] = molecular target: T1, Delta-type opioid receptor (Mus musculus, UniProt P32300); assay: Inhibition of [3H]-Deltorphin 2 binding to mouse delta opioid receptor expressed in rat GH3 cell membranes by Cheng-Prusoff analysis; parameters: species or system Cell membrane
T1 sequence (P32300 whole entry): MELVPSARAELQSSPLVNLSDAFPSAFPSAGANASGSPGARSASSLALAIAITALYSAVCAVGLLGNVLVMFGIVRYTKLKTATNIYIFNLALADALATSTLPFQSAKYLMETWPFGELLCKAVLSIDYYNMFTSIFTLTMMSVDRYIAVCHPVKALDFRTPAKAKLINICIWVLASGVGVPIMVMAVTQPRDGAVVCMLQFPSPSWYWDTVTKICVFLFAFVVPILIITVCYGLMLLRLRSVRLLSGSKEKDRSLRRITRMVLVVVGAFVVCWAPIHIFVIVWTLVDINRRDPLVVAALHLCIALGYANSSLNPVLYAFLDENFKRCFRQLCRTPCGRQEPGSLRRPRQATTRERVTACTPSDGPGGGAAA

[8] = molecular target: T1, Delta-type opioid receptor; assay: Agonist activity at delta opioid receptor in mouse vas deferens assessed as inhibition of electric-field induced measured after 5 mins; type: tissue-based
Mu-type opioid receptor = Mu-type opioid receptor (Homo sapiens, UniProt P35372)
Sequence of Mu-type opioid receptor (P35372 whole entry): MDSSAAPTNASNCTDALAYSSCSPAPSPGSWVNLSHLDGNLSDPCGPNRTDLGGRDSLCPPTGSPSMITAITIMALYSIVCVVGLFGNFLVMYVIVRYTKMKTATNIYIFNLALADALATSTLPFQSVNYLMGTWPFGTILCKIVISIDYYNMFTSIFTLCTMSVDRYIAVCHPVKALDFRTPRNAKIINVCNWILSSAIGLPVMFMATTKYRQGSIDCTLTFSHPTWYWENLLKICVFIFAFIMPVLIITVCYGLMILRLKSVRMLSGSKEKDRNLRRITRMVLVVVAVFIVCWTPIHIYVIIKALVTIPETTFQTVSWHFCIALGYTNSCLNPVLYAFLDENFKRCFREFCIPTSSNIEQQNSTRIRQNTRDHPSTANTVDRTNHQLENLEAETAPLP

[9] = molecular target: Delta-type opioid receptor (Homo sapiens, UniProt P41143)
Sequence of Delta-type opioid receptor (Homo sapiens, UniProt P41143) (P41143 whole entry): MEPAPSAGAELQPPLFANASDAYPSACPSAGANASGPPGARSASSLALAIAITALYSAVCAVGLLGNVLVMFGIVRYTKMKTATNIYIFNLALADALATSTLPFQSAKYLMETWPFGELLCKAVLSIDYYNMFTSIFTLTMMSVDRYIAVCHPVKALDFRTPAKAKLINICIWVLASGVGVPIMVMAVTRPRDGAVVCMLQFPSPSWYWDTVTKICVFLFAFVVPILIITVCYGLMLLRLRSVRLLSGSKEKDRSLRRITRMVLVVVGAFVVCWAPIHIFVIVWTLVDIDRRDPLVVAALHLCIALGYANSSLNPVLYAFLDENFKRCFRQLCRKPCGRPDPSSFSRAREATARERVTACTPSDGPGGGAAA

[10] = molecular target: Kappa-type opioid receptor (Homo sapiens, UniProt P41145)
Sequence of Kappa-type opioid receptor (P41145 whole entry): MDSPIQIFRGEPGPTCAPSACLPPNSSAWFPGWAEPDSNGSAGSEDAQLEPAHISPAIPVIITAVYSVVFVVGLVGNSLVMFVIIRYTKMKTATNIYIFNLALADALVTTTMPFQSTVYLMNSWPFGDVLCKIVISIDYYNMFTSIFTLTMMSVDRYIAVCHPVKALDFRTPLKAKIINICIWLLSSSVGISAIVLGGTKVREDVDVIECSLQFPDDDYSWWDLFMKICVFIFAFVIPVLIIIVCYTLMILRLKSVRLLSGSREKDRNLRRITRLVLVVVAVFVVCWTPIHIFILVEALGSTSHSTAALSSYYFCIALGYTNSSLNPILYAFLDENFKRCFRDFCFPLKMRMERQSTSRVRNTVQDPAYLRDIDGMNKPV

[11] = molecular target: Cholecystokinin receptor type A (Cavia porcellus, UniProt Q63931); assay: Inhibition of [125]BH-CCK8 binding to guinea pig pancreas CCKAR by radioligand binding assay; type: tissue-based
Sequence of Cholecystokinin receptor type A (Q63931 whole entry): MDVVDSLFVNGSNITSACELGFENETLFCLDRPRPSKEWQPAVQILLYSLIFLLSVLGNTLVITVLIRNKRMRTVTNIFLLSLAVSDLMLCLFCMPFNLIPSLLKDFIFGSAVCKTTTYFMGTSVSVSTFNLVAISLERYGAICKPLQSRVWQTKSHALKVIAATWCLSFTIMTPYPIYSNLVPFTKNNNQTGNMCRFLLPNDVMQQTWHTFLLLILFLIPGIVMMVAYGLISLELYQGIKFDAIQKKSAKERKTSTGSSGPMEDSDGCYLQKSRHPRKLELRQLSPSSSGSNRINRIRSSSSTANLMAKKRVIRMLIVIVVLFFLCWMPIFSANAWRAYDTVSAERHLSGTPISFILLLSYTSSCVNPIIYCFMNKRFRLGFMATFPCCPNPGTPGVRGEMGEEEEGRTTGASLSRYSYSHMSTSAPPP

[12] = Inhibition of [125]BH-CCK8 binding to guinea pig cortex CCKBR by radioligand binding assay; type: tissue-based, Cavia porcellus
[13] = molecular target: Gastrin/cholecystokinin type B receptor (Homo sapiens, UniProt P32239); assay: Agonist activity at CCKBR in human NCI-H345 cells assessed as calcium release; type: functional, cell-based
Sequence of Gastrin/cholecystokinin type B receptor (P32239 whole entry): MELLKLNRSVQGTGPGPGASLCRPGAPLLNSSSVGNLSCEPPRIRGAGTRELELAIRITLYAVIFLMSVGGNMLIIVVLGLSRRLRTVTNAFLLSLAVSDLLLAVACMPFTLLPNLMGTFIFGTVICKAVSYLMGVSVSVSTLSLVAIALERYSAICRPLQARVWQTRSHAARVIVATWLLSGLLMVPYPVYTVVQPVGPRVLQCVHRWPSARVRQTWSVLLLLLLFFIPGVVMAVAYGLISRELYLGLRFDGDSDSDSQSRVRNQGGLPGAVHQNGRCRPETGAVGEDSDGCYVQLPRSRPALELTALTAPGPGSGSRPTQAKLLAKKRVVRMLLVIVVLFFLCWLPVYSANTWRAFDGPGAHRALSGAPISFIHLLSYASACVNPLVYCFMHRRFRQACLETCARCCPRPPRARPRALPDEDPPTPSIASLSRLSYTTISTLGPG

[14] = molecular target: Gastrin/cholecystokinin type B receptor (Homo sapiens) (UniProt P32239); assay: Agonist activity at CCKBR in human NCI-H345 cells assessed as calcium release relative to control; type: functional, cell-based; settings: filed as agonist
Sequence of Gastrin/cholecystokinin type B receptor (Homo sapiens) (P32239 whole entry): as above

Human betaherpesvirus 5 = assay: Antiviral activity against HCMV infected in human Hs68 cells by plaque reduction assay; type: functional, cell-based; settings: Human betaherpesvirus 5, Hs68
[15] = Half-life in Sprague-Dawley rat plasma at 50 uM measured by LC-MS/MS analysis; type: ADME, cell-free
[16] = Half-life in human plasma at 50 uM measured by LC-MS/MS analysis; type: ADME, cell-free
[17] = molecular target: T1, Delta-type opioid receptor; assay: Inhibition of [3H]-Deltorphin 2 binding to mouse delta opioid receptor expressed in HEK293 cell membranes incubated for 60 mins by Cheng-Prusoff analysis; parameters: species or system Cell membrane
clinical = settings: human
[18] = molecular target: Protein-S-isoprenylcysteine O-methyltransferase (Homo sapiens, UniProt O60725); assay: Inhibition of human isoprenylcysteine carboxyl methyltransferase expressed in Saccharomyces cerevisiae membranes using AFC as substrate in presence of 14C-SAM incubated for 30 min by scintillation counting method; type: cell membranes, Cell membrane
Sequence of Protein-S-isoprenylcysteine O-methyltransferase (O60725 whole entry): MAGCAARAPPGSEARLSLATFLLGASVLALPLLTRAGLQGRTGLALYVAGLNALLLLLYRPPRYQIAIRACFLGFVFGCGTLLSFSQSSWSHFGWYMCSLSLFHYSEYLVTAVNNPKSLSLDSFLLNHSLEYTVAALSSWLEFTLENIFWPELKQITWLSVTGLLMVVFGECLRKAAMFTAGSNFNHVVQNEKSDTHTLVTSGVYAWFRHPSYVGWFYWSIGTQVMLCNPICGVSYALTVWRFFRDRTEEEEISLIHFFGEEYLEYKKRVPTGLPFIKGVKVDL

Cannabinoid receptor 1 = Cannabinoid receptor 1 (Homo sapiens, UniProt P21554); assay: Displacement of [3H]-CP55940 from human recombinant cannabinoid CB1 receptor expressed in HEK cells by Cheng-Prusoff analysis; type: cell-based
[19] = molecular target: T2, Transient receptor potential cation channel subfamily V member 1 (Homo sapiens, UniProt Q8NER1); assay: Antagonist activity at human recombinant TRPV1 expressed in HEK293 cells assessed as effect on intracellular calcium level by FLOU-4 dye based fluorescence spectrometry; type: cell-based
T2 sequence (Q8NER1 whole entry): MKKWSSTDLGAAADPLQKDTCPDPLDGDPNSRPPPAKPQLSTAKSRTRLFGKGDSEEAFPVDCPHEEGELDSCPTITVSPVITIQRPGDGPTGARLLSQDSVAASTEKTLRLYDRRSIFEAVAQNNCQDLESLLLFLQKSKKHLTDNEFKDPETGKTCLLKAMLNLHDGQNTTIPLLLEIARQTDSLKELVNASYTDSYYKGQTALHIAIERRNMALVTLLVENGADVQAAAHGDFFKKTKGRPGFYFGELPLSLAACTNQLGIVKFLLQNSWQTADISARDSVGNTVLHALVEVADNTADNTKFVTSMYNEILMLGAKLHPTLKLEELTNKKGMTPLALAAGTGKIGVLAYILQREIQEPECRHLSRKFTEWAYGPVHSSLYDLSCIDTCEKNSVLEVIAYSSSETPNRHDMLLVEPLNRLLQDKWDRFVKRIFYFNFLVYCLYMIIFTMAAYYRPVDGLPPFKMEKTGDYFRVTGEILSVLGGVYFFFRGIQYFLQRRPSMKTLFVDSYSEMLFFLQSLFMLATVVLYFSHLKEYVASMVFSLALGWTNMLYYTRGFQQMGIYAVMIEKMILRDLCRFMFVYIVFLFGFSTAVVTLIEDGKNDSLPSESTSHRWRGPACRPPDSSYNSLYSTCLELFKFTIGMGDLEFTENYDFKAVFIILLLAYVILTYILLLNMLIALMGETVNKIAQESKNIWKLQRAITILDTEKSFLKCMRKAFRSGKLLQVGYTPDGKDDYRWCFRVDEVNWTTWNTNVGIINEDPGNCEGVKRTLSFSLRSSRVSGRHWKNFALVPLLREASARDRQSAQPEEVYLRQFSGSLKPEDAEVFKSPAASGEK

[20] = molecular target: T2, Transient receptor potential cation channel subfamily V member 1
[21] = Inhibition of ACAT in cholesterol-fed New Zealand rabbit intestional microsomes using [1-14C]oleoyl-CoA as substrate preincubated for 5 mins followed by substrate addition and measured after 5 mins by liquid scintillation counting method; parameters: species or system Oryctolagus cuniculus, Intestine, Microsome
Rattus norvegicus = assay: Hypocholesterolemic activity in cholestrol fed Sprague-Dawley rat assessed as decrease in total cholesterol at 0.05%, po administered for 1 week; type: functional; parameters: scale not given: the % may be the effect or the level left; settings: time 1 weeks
Interstitial collagenase = Interstitial collagenase (Homo sapiens, UniProt P03956); assay: Inhibition of PMA-induced human skin fibroblast derived MMP1 by fluorometric assay; type: tissue-based
Sequence of Interstitial collagenase (P03956 whole entry): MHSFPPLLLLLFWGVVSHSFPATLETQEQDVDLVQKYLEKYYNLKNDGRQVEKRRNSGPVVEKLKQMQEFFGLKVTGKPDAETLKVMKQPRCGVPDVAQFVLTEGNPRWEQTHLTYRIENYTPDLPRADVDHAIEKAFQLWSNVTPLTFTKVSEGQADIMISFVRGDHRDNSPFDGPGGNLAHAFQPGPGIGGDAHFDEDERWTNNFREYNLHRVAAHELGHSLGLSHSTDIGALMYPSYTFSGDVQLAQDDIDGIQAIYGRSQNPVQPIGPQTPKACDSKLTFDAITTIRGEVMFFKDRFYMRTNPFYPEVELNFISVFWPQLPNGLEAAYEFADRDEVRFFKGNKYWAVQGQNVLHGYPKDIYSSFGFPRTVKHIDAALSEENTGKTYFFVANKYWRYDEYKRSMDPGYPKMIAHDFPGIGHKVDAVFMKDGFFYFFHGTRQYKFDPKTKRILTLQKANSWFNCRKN

[22] = Oral bioavailability in rat at 30 mg/kg; type: ADME, organism-based; settings: in vivo
[23] = molecular target: 72 kDa type IV collagenase (Homo sapiens, UniProt P08253); assay: Inhibition of TNF-induced MMP2 isolated from human HT-1080 cell medium by fluorometric assay; type: tissue-based
Sequence of 72 kDa type IV collagenase (P08253 whole entry): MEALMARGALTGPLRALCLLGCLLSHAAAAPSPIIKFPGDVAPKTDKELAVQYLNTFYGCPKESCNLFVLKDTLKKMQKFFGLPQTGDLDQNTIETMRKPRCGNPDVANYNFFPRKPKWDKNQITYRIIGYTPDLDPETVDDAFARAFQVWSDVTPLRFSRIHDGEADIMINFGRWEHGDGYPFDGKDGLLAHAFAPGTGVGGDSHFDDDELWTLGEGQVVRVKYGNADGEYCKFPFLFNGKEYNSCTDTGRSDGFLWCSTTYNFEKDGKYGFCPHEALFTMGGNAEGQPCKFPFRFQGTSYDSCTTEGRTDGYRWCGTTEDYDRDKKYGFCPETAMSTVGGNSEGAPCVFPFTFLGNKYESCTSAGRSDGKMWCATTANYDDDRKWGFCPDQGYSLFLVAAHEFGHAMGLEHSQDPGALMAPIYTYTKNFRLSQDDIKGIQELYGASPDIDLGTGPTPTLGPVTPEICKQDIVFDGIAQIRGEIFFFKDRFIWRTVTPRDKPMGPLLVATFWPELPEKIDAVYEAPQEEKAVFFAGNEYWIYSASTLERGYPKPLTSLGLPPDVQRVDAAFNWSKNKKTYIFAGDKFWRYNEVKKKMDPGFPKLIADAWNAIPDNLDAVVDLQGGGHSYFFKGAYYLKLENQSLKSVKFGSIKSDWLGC

Stromelysin-1 = Stromelysin-1 (Homo sapiens, UniProt P08254); assay: Inhibition of human MMP3 by fluorometric assay
[24] = Half life in rat at 30 mg/kg, po; type: ADME, organism-based; settings: in vivo
Matrilysin = Matrilysin (Homo sapiens, UniProt P09237); assay: Inhibition of human MMP7 by fluorometric assay
Sequence of Matrilysin (P09237 whole entry): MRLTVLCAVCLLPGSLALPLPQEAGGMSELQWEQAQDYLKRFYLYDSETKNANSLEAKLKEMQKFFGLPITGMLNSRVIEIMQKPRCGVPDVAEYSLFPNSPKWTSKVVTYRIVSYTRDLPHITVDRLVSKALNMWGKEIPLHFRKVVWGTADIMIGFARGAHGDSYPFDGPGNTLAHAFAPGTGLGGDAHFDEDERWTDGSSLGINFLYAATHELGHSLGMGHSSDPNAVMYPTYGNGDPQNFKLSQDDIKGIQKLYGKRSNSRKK

MDA-MB-231 [25] = assay: Antitumor activity against human MDA-MB-231 cells xenografted in nude mouse assessed as reduction in tumor volume at 90 mg/kg, ip administered for 15 days (reference value: 550 +/- 98.6 mm3); type: functional; settings: time 15 day

Which clearance [1] does the source give for `CC[C@@]1(C(=O)N[C@@H](Cc2ccc(-c3c(OC)cccc3OC)cc2)C(=O)O)CCN1S(=O)(=O)c1ccccc1` here?
The clearance was 110 mL/min/kg.

And the bioavailability [2]?
Its bioavailability is under 10%.

And the IC50 (Integrin alpha-4/beta-1)?
Its IC50 is 0.07 nM.

For `CCCCS(=O)(=O)NCc1ccc2c(c1)OCO2`, which IC50 (MDA-MB-231 [3]) is on record?
The IC50 was 87000 nM.

And the Activity (MDA-MB-231 [4])?
The Activity was 133.4 mm3.

What about the IC50 (MCF-10A) of the same molecule?
Its IC50 is 198000 nM.

For `CC(C)C[C@H](N)CNC(=O)[C@H](CC(C)C)NC(=O)[C@H](Cc1cnc[nH]1)NC(=O)CNC(=O)[C@@H](NC(=O)[C@H](C)NC(=O)[C@H](Cc1c[nH]c2ccccc12)NC(=O)[C@H](CCC(N)=O)NC(=O)[C@H](N)Cc1ccccc1)C(C)C`, which IC50 [5] is on record?
Its IC50 is 68.7 nM.

For `CC(C)C[C@H](OC(=O)[C@H](Cc1ccccc1)NC(=O)CNC(=O)CNC(=O)[C@@H](N)Cc1ccc(O)cc1)C(=O)O` (H-YGGF-{Hica(2S)}), which half-life [6] is on record?
The half-life was 0.055 h.

What about the Ki [7] of the same molecule?
Its Ki is 11.9 nM.

What about the EC50 [8] of the same molecule?
The EC50 was 140 nM.

Which EC50 (Mu-type opioid receptor) does the source give for `CC(C)C[C@H](NC(=O)[C@H](Cc1ccccc1)NC(=O)CNC(=O)CN[C@@H]([C@@H](N)Cc1ccc(O)cc1)C(F)(F)F)C(=O)O` here?
Its EC50 is over 10000 nM.

What about the EC50 [9] of the same molecule?
Its EC50 is over 10000 nM.

And the EC50 [10]?
The EC50 was over 10000 nM.

Which IC50 [11] does the source give for `CC(C)C[C@H](NC(=O)OC(C)(C)C)C(=O)NCC(=O)N[C@@H](Cc1c[nH]c2ccccc12)C(=O)N[C@@H](CC(C)C)C(=O)N[C@@H](CC(=O)O)C(=O)N[C@@H](Cc1ccccc1)C(N)=O` (Boc-LGWLDF-NH2) here?
Its IC50 is 1600 nM.

And the IC50 [12]?
Its IC50 is 54 nM.

What about the EC50 [13] of the same molecule?
Its EC50 is 40 nM.

What about the Emax [14] of the same molecule?
The Emax was 99%.

Which IC50 (Human betaherpesvirus 5) does the source give for `CC(C)Oc1ccccc1CNC(=O)Nc1ccc2cnccc2n1` here?
Its IC50 is 0.03 µg/mL (≈ 0.0892 µM).

With `CC(C)C[C@H](N)/C=C/NC(=O)[C@H](CC(C)C)NC(=O)[C@H](Cc1cnc[nH]1)NC(=O)CNC(=O)[C@@H](NC(=O)[C@H](C)NC(=O)[C@H](Cc1c[nH]c2ccccc12)NC(=O)[C@H](CCC(N)=O)NC(=O)[C@H](N)Cc1ccccc1)C(C)C` as the molecule, how does the IC50 [5] read?
Its IC50 is 6.7 nM.

What does the source list for `CC(C)C[C@H](NC(=O)[C@H](Cc1ccccc1)NC(=O)CNC(=O)C/C=C(\F)[C@@H](N)Cc1ccc(O)cc1)C(=O)O`?
half-life at 50 µM [15]: 4 h; half-life at 50 µM [16]: 4 h

For `CC(C)C[C@H](NC(=O)[C@@H](/C=C(\F)CNC(=O)CNC(=O)[C@@H](N)Cc1ccc(O)cc1)Cc1ccccc1)C(=O)O`, which Ki [17] is on record?
The Ki was 43 nM.

Which half-life (clinical) does the source give for `Cc1nnc2n1-c1ccc(Cl)cc1C(c1ccccc1)=NC2` [ALPRAZOLAM] here?
The half-life was 6.3 h.

With `CC(C)=CCC/C(C)=C/CC/C(C)=C/CSC[C@H](NC(=O)c1ccccc1Oc1ccccc1)C(=O)O` as the molecule, how does the IC50 [18] read?
Its IC50 is 4300 nM.

For `CC(C)C[C@H](NC(=O)[C@H](Cc1ccccc1)NC(=O)CNC(=O)CN[C@H]([C@@H](N)Cc1ccc(O)cc1)C(F)(F)F)C(=O)O`, which EC50 (Mu-type opioid receptor) is on record?
Its EC50 is over 10000 nM.

What about the EC50 [9] of the same molecule?
The EC50 was over 10000 nM.

What about the EC50 [10] of the same molecule?
The EC50 was over 10000 nM.

For `CCCCCCCc1cn(Cc2cc(OC)c(O)cc2I)nn1`, which Ki (Cannabinoid receptor 1) is on record?
The Ki was 440 nM.

And the Ki [19]?
Its Ki is 0.69 nM.

And the EC50 [20]?
Its EC50 is over 10000 nM.

What does the source list for `CC(C)C[C@@H](C(=O)O)N(C)C(=O)[C@H](Cc1ccccc1)NC(=O)CNC(=O)CNC(=O)[C@@H](N)Cc1ccc(O)cc1`?
half-life [6]: 0.178 h; Ki [7]: 12.6 nM; EC50 [8]: 35 nM

With `CCCCCCCCCCCCCCCCCNC(=O)Nc1c(C)cccc1C` as the molecule, how does the IC50 [21] read?
Its IC50 is 160 nM.

What about the Activity (Rattus norvegicus) of the same molecule?
Its Activity is 55%.

What does the source list for `C=CC[C@H](C(=O)NO)[C@@H](CC(C)C)C(=O)N[C@@H](Cc1ccc2c(c1)CCC2)C(=O)NC`?
IC50 (Interstitial collagenase): 2.2 nM; bioavailability [22]: 0%; IC50 [23]: 1.8 nM; IC50 (Stromelysin-1): 12 nM; half-life [24]: 0.35 h; IC50 (Matrilysin): 11 nM

What does the source list for `CSCC[C@H](NC(=O)[C@H](Cc1c[nH]c2ccccc12)NC(=O)OC(C)(C)C)C(=O)N[C@@H](CC(=O)O)C(=O)N[C@@H](Cc1ccccc1)C(N)=O`?
IC50 [12]: 25 nM; Emax [14]: 99%

Which results are given for `CCCCCCCCCCCCCCCCC(=O)Nc1c(C)cccc1C`?
IC50 [21]: 43 nM; Activity (Rattus norvegicus): 38%

What does the source list for `COc1cc(CNC(=O)CCCC/C=C/C(C)C)ccc1O` [CAPSAICIN]?
IC50 (MDA-MB-231 [3]): 120000 nM; Activity (MDA-MB-231 [25]): 281.3 mm3
